Measurements from PMC6934184, “Selective DNA-PKcs inhibition extends the therapeutic index of localized radiotherapy and chemotherapy” (The Journal of Clinical Investigation, 2019).

Target: T1, DDR2 (Homo sapiens, UniProt Q16832)
T1 construct: purchased Thermo Fisher Scientific (Life Technologies) SelectScreen
Test: SelectScreen LanthaScreen
Format: binding
Settings: read-out: % displacement
Summary of the method: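 Percent values come from Thermo SelectScreen profiling of NU5455, combining activity and binding assays. CSF1R was run in Z'LYTE format at Km app ATP, and CAMK1 in Adapta format with ATP listed at 10.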

T1 sequence (Q16832 22-855): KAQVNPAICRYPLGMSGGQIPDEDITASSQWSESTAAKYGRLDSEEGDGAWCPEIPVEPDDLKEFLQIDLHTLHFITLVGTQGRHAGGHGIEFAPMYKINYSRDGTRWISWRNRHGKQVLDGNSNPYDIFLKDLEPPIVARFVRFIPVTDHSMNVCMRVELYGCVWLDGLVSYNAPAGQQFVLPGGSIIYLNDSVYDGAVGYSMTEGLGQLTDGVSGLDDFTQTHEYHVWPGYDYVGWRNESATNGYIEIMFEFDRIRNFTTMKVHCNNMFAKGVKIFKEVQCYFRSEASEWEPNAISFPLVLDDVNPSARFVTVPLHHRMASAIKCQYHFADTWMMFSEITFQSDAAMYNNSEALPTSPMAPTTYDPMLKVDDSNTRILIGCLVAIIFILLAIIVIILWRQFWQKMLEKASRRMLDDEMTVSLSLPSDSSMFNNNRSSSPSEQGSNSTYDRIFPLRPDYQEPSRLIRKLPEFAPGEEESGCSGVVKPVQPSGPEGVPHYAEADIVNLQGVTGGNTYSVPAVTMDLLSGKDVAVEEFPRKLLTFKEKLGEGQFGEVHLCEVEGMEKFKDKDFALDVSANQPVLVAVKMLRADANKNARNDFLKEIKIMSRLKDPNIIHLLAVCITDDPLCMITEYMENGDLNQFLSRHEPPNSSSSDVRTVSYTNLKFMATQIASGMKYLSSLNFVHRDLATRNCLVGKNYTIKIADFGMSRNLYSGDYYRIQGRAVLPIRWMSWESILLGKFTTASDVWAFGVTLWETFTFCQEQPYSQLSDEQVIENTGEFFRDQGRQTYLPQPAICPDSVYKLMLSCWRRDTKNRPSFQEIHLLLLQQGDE

Structure (SMILES): CN(C(=O)CN1CCOCC1)c1ccc2sc3c(-c4cccc5c(=O)cc(N6CC7CCC(C6)O7)oc45)cccc3c2c1 [NU5455]
- inhibition at 1 µM: 0.7%
